Reference: patent US20240415819A1, “MACROCYCLIC COMPOUNDS AS PROTEASOME SUBUNIT BETA TYPE-5 INHIBITORS” (Lead Discovery Center GmbH, priority 2021, published 2024)

What was measured:
[1] = test system: A549 (human lung carcinoma cell line); test: Glo assay of A549 cells (Table 3; ProteasomeGlo plating scheme); assay type: cell-based; details: Homo sapiens; A549 cells; read-out: PGLo A549
Outline: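 Cells plated in 384 wells; compound, DMSO, staurosporine transferred by ECHO; 105 min, 37° C., 5% CO2; Proteasome-Glo (Suc-LLVY-Glo) reagent added; dark 10-15 min; luminescence; IC50 nM.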

[2] = test system: hPMBC; test: Chymotrypsin-like ProteasomeGlo assay in hPBMC; assay type: cell-based; details: Homo sapiens; read-out: Pglo hPBMC
Outline: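 IC50 derived from luminescent chymotrypsin-like proteasome activity (Suc-LLVY-Glo substrate plus luciferin detection reagent). Measured after 105 min compound exposure at 37 °C, 5% CO2. Cells were human B cells purified from buffy-coat PBMC.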

SMILES | IC50 [1] | IC50 [2]
CNCC(=O)N[C@H]1CC(=O)N2CCCC(CCOc3ccc(C)c(c3)CNC(=O)[C@H](CCc3ccccc3)NC1=O)C2 (stereo partly drawn) [Compound 129, N-((9S,12S)-5^4-methyl-8,11,14-trioxo-9-phenethyl-4-oxa-7,10-diaza-1(3,1)-piperidina-5(1,3)-benzenacyclotetradecaphane-12-yl)-2-(methylamino)acetamide] | < 100 nM | < 100 nM
C=CS(=O)(=O)N[C@H]1CC(=O)N2CCCC(CCOc3ccc(C)c(c3)CNC(=O)[C@H](CCc3ccccc3)NC1=O)C2 (stereo partly drawn) [Compound 180, N-((9S,12S)-5^4-methyl-8,11,14-trioxo-9-phenethyl-4-oxa-7,10-diaza-1(3,1)-piperidina-5(1,3)-benzenacyclotetradecaphane-12-yl)ethenesulfonamide] | < 100 nM | < 100 nM
Cc1ccc2cc1CNC(=O)[C@H](CCc1ccccc1)NC(=O)[C@@H](NC(=O)C1(C)CCNCC1)CC(=O)N1CCCC(CCO2)C1 (stereo partly drawn) [Compound 136, 4-methyl-N-((9S,12S)-5^4-methyl-8,11,14-trioxo-9-phenethyl-4-oxa-7,10-diaza-1(3,1)-piperidina-5(1,3)-benzenacyclotetradecaphane-12-yl)piperidine-4-carboxamide] | < 100 nM | < 100 nM
Cc1ccc2cc1CNC(=O)[C@H](CCc1ccccc1)NC(=O)[C@@H](NS(=O)(=O)Cc1ccccc1)CC(=O)N1CCCC(CCO2)C1 (stereo partly drawn) [Compound 216, N-((9S,12S)-5^4-methyl-8,11,14-trioxo-9-phenethyl-4-oxa-7,10-diaza-1(3,1)-piperidina-5(1,3)-benzenacyclotetradecaphane-12-yl)-1-phenylmethanesulfonamide] | 100 to 500 nM | < 100 nM
Cc1ccc2cc1CNC(=O)[C@H](CCc1ccccc1)NC(=O)[C@@H](NC(=O)[C@@H](C)c1ccccc1)CC(=O)N1CCCC(CCO2)C1 (stereo partly drawn) [Compound 81, (2S)-N-((9S,12S)-5^4-methyl-8,11,14-trioxo-9-phenethyl-4-oxa-7,10-diaza-1(3,1)-piperidina-5(1,3)-benzenacyclotetradecaphane-12-yl)-2-phenylpropanamide] | < 100 nM | < 100 nM
CO[C@@H](C(=O)N[C@H]1CC(=O)N2CCCC(CCOc3ccc(C)c(c3)CNC(=O)[C@H](CCc3ccccc3)NC1=O)C2)c1ccccc1 (stereo partly drawn) [Compound 86, (2R)-2-methoxy-N-((9S,12S)-5^4-methyl-8,11,14-trioxo-9-phenethyl-4-oxa-7,10-diaza-1(3,1)-piperidina-5(1,3)-benzenacyclotetradecaphane-12-yl)-2-phenylacetamide] | < 100 nM | < 100 nM
CC(=O)N[C@H]1CC(=O)N2CCCC(CCOc3ccc(C)c(c3)CNC(=O)C(c3cnn(CCCC(=O)O)c3)NC1=O)C2 (stereo partly drawn) [Compound 568, 4-(4-((12S)-12-acetamido-5^4-methyl-8,11,14-trioxo-4-oxa-7,10-diaza-1(3,1)-piperidina-5(1,3)-benzenacyclotetradecaphane-9-yl)-1H-pyrazol-1-yl)butanoic acid] | < 100 nM | < 100 nM
Cc1ccc2cc1CNC(=O)[C@H](CCc1ccccc1)NC(=O)[C@@H](NC(=O)CCc1ccccc1-c1ccccc1)CC(=O)N1CCCC(CCO2)C1 (stereo partly shown) [Compound 177] | < 100 nM | < 100 nM
Cc1ccc2cc1CNC(=O)[C@H](CCc1ccccc1)NC(=O)[C@@H](NC(=O)[C@@H](N)Cc1ccccc1)CC(=O)N1CCCC(CCO2)C1 (stereo partly drawn) [Compound 179, (2R)-2-amino-N-((9S,12S)-5^4-methyl-8,11,14-trioxo-9-phenethyl-4-oxa-7,10-diaza-1(3,1)-piperidina-5(1,3)-benzenacyclotetradecaphane-12-yl)-3-phenylpropanamide-] | < 100 nM | < 100 nM
Cc1ccc2cc1CNC(=O)[C@H](Cc1c[nH]c3ccccc13)NC(=O)CCC(=O)N1CCCC(CCO2)C1 (stereo partly drawn) [Compound 77, (9S)-9-((1H-indol-3-yl)methyl)-5^4-methyl-4-oxa-7,10-diaza-1(3,1)-piperidina-5(1,3)-benzenacyclotetradecaphane-8,11,14-trione] | 500 to 1000 nM | 100 to 500 nM
Cc1ccc2cc1CNC(=O)[C@H](CCc1ccccc1)NC(=O)[C@@H](NC(=O)C(C)(CO)CO)CC(=O)N1CCCC(CCO2)C1 (stereo partly drawn) [Compound 286, 3-hydroxy-2-(hydroxymethyl)-2-methyl-N-((9S,12S)-5^4-methyl-8,11,14-trioxo-9-phenethyl-4-oxa-7,10-diaza-1(3,1)-piperidina-5(1,3)-benzenacyclotetradecaphane-12-yl)propanamide] | 100 to 500 nM | < 100 nM
Cc1ccc2cc1CNC(=O)[C@H](CCc1ccccc1)NC(=O)[C@@H](NC(=O)C1CCC(C(F)(F)F)N1)CC(=O)N1CCCC(CCO2)C1 (stereo partly drawn) [Compound 157, N-((9S,12S)-5^4-methyl-8,11,14-trioxo-9-phenethyl-4-oxa-7,10-diaza-1(3,1)-piperidina-5(1,3)-benzenacyclotetradecaphane-12-yl)-5-(trifluoromethyl)pyrrolidine-2-carboxamide] | 100 to 500 nM | < 100 nM
Cc1ccc2cc1CNC(=O)[C@H](CCc1ccccc1)NC(=O)[C@@H](NC(=O)Cc1cccc(N)c1)CC(=O)N1CCCC(CCO2)C1 (stereo partly drawn) [Compound 127, 2-(3-aminophenyl)-N-((9S,12S)-5^4-methyl-8,11,14-trioxo-9-phenethyl-4-oxa-7,10-diaza-1(3,1)-piperidina-5(1,3)-benzenacyclotetradecaphane-12-yl)acetamide] | < 100 nM | < 100 nM
CC(=O)N[C@H]1CCC(=O)N2CCOC(CCOc3ccc(C)c(c3)CNC(=O)[C@H](CCc3ccccc3)NC1=O)C2 (stereo partly drawn) [Compound 143, N-((9S,12S)-5^4-methyl-8,11,15-trioxo-9-phenethyl-4-oxa-7,10-diaza-1(2,4)-morpholina-5(1,3)-benzenacyclopentadecaphane-12-yl)acetamide] | 100 to 500 nM | < 100 nM
Cc1ccc2cc1CNC(=O)[C@H](CCc1ccccc1)NC(=O)[C@@H](NC(=O)c1n[nH]c3ccccc13)CC(=O)N1CCCC(CCO2)C1 (stereo partly drawn) [Compound 60, N-((9S,12S)-5^4-methyl-8,11,14-trioxo-9-phenethyl-4-oxa-7,10-diaza-1(3,1)-piperidina-5(1,3)-benzenacyclotetradecaphane-12-yl)-1H-indazole-3-carboxamide] | 100 to 500 nM | 100 to 500 nM
CC(=O)N[C@H]1CCCC(=O)N2CC3CC(Oc4ccc(C)c(c4)CNC(=O)[C@H](CCc4ccccc4)NC1=O)C3C2 (stereo partly drawn) [Compound 191, N-((11R,15S,7S,10S)-3^4-methyl-6,9,14-trioxo-7-phenethyl-2-oxa-13,5,8-triaza-1(7,3)-bicyclo[3.2.0]heptana-3(1,3)-benzenacyclotetradecaphane-10-yl)acetamide] | 1000 to 5000 nM | 100 to 500 nM
Cc1ccc2cc1CNC(=O)[C@H](CCc1ccccc1)NC(=O)[C@@H](NC(=O)CCc1ccc(-c3ccccc3)cc1)CC(=O)N1CCCC(CCO2)C1 (stereo partly drawn) [Compound 176, 3-([1,1′-biphenyl]-4-yl)-N-((9S,12S)-5^4-methyl-8,11,14-trioxo-9-phenethyl-4-oxa-7,10-diaza-1(3,1)-piperidina-5(1,3)-benzenacyclotetradecaphane-12-yl)propanamide] | < 100 nM | < 100 nM
CC(=O)N[C@H]1CC(=O)N2CCCC(CCOc3ccc(C)c(c3)CNC(=O)C(c3cnn(CCCS(=O)(=O)O)c3)NC1=O)C2 (stereo partly drawn) [Compound 571, 3-(4-((12S)-12-acetamido-5^4-methyl-8,11,14-trioxo-4-oxa-7,10-diaza-1(3,1)-piperidina-5(1,3)-benzenacyclotetradecaphane-9-yl)-1H-pyrazol-1-yl)propane-1-sulfonic acid] | < 100 nM | < 100 nM
COc1ccc(CC(=O)N[C@H]2CC(=O)N3CCCC(CCOc4ccc(C)c(c4)CNC(=O)[C@H](CCc4ccccc4)NC2=O)C3)cc1OC (stereo partly drawn) [Compound 63, 2-(3,4-dimethoxyphenyl)-N-((9S,12S)-5^4-methyl-8,11,14-trioxo-9-phenethyl-4-oxa-7,10-diaza-1(3,1)-piperidina-5(1,3)-benzenacyclotetradecaphane-12-yl)acetamide] | < 100 nM | < 100 nM
COc1ccc2cc1CNC(=O)[C@H](CCc1ccccc1)NC(=O)[C@@H](NC(C)=O)CC(=O)N1CCCC(CCO2)C1 (stereo partly drawn) [Compound 211, N-((9S,12S)-5^4-methoxy-8,11,14-trioxo-9-phenethyl-4-oxa-7,10-diaza-1(3,1)-piperidina-5(1,3)-benzenacyclotetradecaphane-12-yl)acetamide] | 500 to 1000 nM | 100 to 500 nM
Cc1ccc2cc1CNC(=O)[C@H](CCc1ccccc1)NC(=O)[C@@H](NC(=O)C1CCN1)CC(=O)N1CCCC(CCO2)C1 (stereo partly drawn) [Compound 160, (2R)-N-((9S,12S)-5^4-methyl-8,11,14-trioxo-9-phenethyl-4-oxa-7,10-diaza-1(3,1)-piperidina-5(1,3)-benzenacyclotetradecaphane-12-yl)azetidine-2-carboxamide] | 100 to 500 nM | < 100 nM
Cc1ccc2cc1CNC(=O)[C@H](CCc1ccccc1)NC(=O)[C@@H](NC(=O)C1CCCc3ccccc31)CC(=O)N1CCCC(CCO2)C1 (stereo partly drawn) [Compound 82, N-((9S,12S)-5^4-methyl-8,11,14-trioxo-9-phenethyl-4-oxa-7,10-diaza-1(3,1)-piperidina-5(1,3)-benzenacyclotetradecaphane-12-yl)-1,2,3,4-tetrahydronaphthalene-1-carboxamide] | < 100 nM | < 100 nM
Cc1ccc2cc1CNC(=O)[C@H](CCc1ccccc1)NC(=O)[C@@H](N)CC(=O)N1CCCC(CCO2)C1 (stereo partly drawn) [Compound 8, (9S,12S)-12-amino-5^4-methyl-9-phenethyl-4-oxa-7,10-diaza-1(3,1)-piperidina-5(1,3)-benzenacyclotetradecaphane-8,11,14-trione] | 500 to 1000 nM | 100 to 500 nM
